Source: patent US20240279218A1 (Hoffmann-La Roche Inc., priority 2016, published 2024)

Columns and labels:
h-GABA-A α5β3γ2 [1] = target: T1, h-GABA-A α5β3γ2 (Homo sapiens (Human), UniProt P18507+P31644); experiment: Two-electrode voltage clamp electrophysiology in Xenopus oocytes expressing GABAA receptors, modulation of GABA EC20 current; assay type: cell-based; conditions: Xenopus oocytes; for Efficacy (GABA) %: % modulation of GABA EC20 = 100*(Fold increase−1); for Fold increase h-GABA-A α5β3γ2 oocyte: GABA EC20, test compound at approx. 30 fold its Ki
Summary of the method: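 Values are % modulation of an EC20 GABA response, derived point by point from the ratio of compound-exposed versus control current traces (extremum taken, 100×(fold−1)). Recordings used oocytes injected with human α5, β3, γ2 mRNA, clamped at −80 mV at room temperature, at least 3 oocytes each.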

h-GABA-A α5β3γ2 [2] = target: T1, h-GABA-A α5β3γ2; experiment: [3H]flumazenil competition binding assay, membranes of HEK293 cells expressing human GABAA receptors; conditions: displacement of [3H]flumazenil 0.5 nM, HEK293 cells expressing human receptors, mean of two determinations; read-out: Ki h-GABA-A α5β3γ2
Summary of the method: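 Displacement of [3H]flumazenil from membranes of HEK293 cells transiently expressing human α5β3γ2 receptors, in Krebs-tris buffer pH 7.5. Incubation to equilibrium, 1 h at 4° C., then filtration and scintillation counting. Ki is the mean of two determinations.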

Q: For `Cc1ccc(-c2noc(C)c2COc2cnc(C(=O)NC3CC4(COC4)C3)cn2)cn1` [Example 101, 5-((5-methyl-3-(6-methylpyridin-3-yl)isoxazol-4-yl)methoxy)-N-(2-oxaspiro[3.3]heptan-6-yl)pyrazine-2-carboxamide], which “Efficacy (GABA) %” value (h-GABA-A α5β3γ2 [1]) is on record?
A: 82%

Q: What about the “Fold increase h-GABA-A α5β3γ2 oocyte” value (h-GABA-A α5β3γ2 [1]) of the same compound?
A: 1.82

Q: What about the Ki (h-GABA-A α5β3γ2 [2]) of the same compound?
A: 50.6 nM

Q: Which “Efficacy (GABA) %” value (h-GABA-A α5β3γ2 [1]) does the source give for `Cc1onc(-c2ccc(C3CC3)nc2)c1COc1ccc(C(=O)NC2CCS(=O)(=O)CC2)cn1` [Example 130, 6-((3-(6-cyclopropyl-3-pyridyl)-5-methyl-isoxazol-4-yl)methoxy)-N-(1,1-dioxothian-4-yl)pyridine-3-carboxamide] here?
A: 128%

Q: And the “Fold increase h-GABA-A α5β3γ2 oocyte” value (h-GABA-A α5β3γ2 [1])?
A: 2.28

Q: And the Ki (h-GABA-A α5β3γ2 [2])?
A: 30.4 nM

Q: For `Cc1ccc(-c2noc(C)c2COc2nnc(C(=O)NC3CCOCC3)cc2C)cn1` [Example 71], which “Efficacy (GABA) %” value (h-GABA-A α5β3γ2 [1]) is on record?
A: 61%

Q: What about the “Fold increase h-GABA-A α5β3γ2 oocyte” value (h-GABA-A α5β3γ2 [1]) of the same compound?
A: 1.61

Q: And the Ki (h-GABA-A α5β3γ2 [2])?
A: 2.4 nM

Q: Which “Efficacy (GABA) %” value (h-GABA-A α5β3γ2 [1]) does the source give for `Cc1ccc(-c2noc(C)c2COc2ccc(C(=O)N3CCC3)nn2)cn1` [Example 57, azetidin-1-yl(6-((5-methyl-3-(6-methylpyridin-3-yl)isoxazol-4-yl)methoxy)pyridazin-3-yl)methanone] here?
A: 64%

Q: What about the “Fold increase h-GABA-A α5β3γ2 oocyte” value (h-GABA-A α5β3γ2 [1]) of the same compound?
A: 1.64

Q: What about the Ki (h-GABA-A α5β3γ2 [2]) of the same compound?
A: 7.2 nM

Q: For `O=C(NC1CC2(COC2)C1)c1ccc(OCc2c(-c3ccc(Cl)nc3)noc2C2CC2)nn1` [Example 178, 6-((3-(6-chloropyridin-3-yl)-5-cyclopropylisoxazol-4-yl)methoxy)-N-(2-oxaspiro[3.3]heptan-6-yl)pyridazine-3-carboxamide], which “Efficacy (GABA) %” value (h-GABA-A α5β3γ2 [1]) is on record?
A: 73%

Q: And the “Fold increase h-GABA-A α5β3γ2 oocyte” value (h-GABA-A α5β3γ2 [1])?
A: 1.73

Q: What about the Ki (h-GABA-A α5β3γ2 [2]) of the same compound?
A: 42.9 nM

Q: With `Cc1ccc(-c2noc(CF)c2COc2ccc(C(=O)NC3CCOCC3)nn2)cn1` [Example 168, 6-((5-(fluoromethyl)-3-(6-methylpyridin-3-yl)isoxazol-4-yl)methoxy)-N-(tetrahydropyran-4-yl)pyridazine-3-carboxamide] as the compound, how does the “Efficacy (GABA) %” value (h-GABA-A α5β3γ2 [1]) read?
A: 102%

Q: What about the “Fold increase h-GABA-A α5β3γ2 oocyte” value (h-GABA-A α5β3γ2 [1]) of the same compound?
A: 2.02

Q: What about the Ki (h-GABA-A α5β3γ2 [2]) of the same compound?
A: 32.4 nM

Q: Which results are given for `Cc1ccc(-c2noc(C)c2COc2ccc(C(=O)NC3CCOCC3)nn2)cn1` [Example 8, 6-((5-methyl-3-(6-methylpyridin-3-yl)isoxazol-4-yl)methoxy)-N-(tetrahydropyran-4-yl)pyridazine-3-carboxamide]?
A: Efficacy (GABA) % (h-GABA-A α5β3γ2 [1]): 97%; Fold increase h-GABA-A α5β3γ2 oocyte (h-GABA-A α5β3γ2 [1]): 1.97; Ki (h-GABA-A α5β3γ2 [2]): 8.7 nM

Q: Which results are given for `Cc1ccc(-c2noc(C)c2COc2cnc(C(=O)NC3CCS(=O)(=O)CC3)cn2)cn1` [Example 72, N-(1,1-dioxothian-4-yl)-5-((5-methyl-3-(6-methyl-3-pyridyl)isoxazol-4-yl)methoxy)pyrazine-2-carboxamide]?
A: Efficacy (GABA) % (h-GABA-A α5β3γ2 [1]): 130%; Fold increase h-GABA-A α5β3γ2 oocyte (h-GABA-A α5β3γ2 [1]): 2.3; Ki (h-GABA-A α5β3γ2 [2]): 11.4 nM

Q: What does the source list for `CCc1onc(-c2ccc(C)nc2)c1COc1ccc(C(=O)NC2CC2)nn1` [Example 123, N-cyclopropyl-6-((5-ethyl-3-(6-methylpyridin-3-yl)isoxazol-4-yl)methoxy)pyridazine-3-carboxamide]?
A: Efficacy (GABA) % (h-GABA-A α5β3γ2 [1]): 106%; Fold increase h-GABA-A α5β3γ2 oocyte (h-GABA-A α5β3γ2 [1]): 2.06; Ki (h-GABA-A α5β3γ2 [2]): 22.1 nM

Q: Which results are given for `CCC[C@H](CO)NC(=O)c1ccc(OCc2c(-c3ccc(C)nc3)noc2C)nc1` [Example 124, (R)—N-(1-hydroxypentan-2-yl)-6-((5-methyl-3-(6-methylpyridin-3-yl)isoxazol-4-yl)methoxy)pyridine-3-carboxamide]?
A: Efficacy (GABA) % (h-GABA-A α5β3γ2 [1]): 47%; Fold increase h-GABA-A α5β3γ2 oocyte (h-GABA-A α5β3γ2 [1]): 1.47; Ki (h-GABA-A α5β3γ2 [2]): 36.6 nM

Q: Which results are given for `Cc1ccc(-c2noc(C)c2COc2ccc(C(=O)N[C@H]3CC[C@](C)(O)CC3)nn2)cn1` [Example 146]?
A: Efficacy (GABA) % (h-GABA-A α5β3γ2 [1]): 78%; Fold increase h-GABA-A α5β3γ2 oocyte (h-GABA-A α5β3γ2 [1]): 1.78; Ki (h-GABA-A α5β3γ2 [2]): 10 nM

Q: Which “Efficacy (GABA) %” value (h-GABA-A α5β3γ2 [1]) does the source give for `Cc1ccc(-c2noc(C)c2COc2ccc(C(=O)N[C@H]3C[C@@H](OC4CC4)C3)nn2)cn1` [Example 176, cis-N-(3-cyclopropoxycyclobutyl)-6-((5-methyl-3-(6-methylpyridin-3-yl)isoxazol-4-yl)methoxy)pyridazine-3-carboxamide] here?
A: 64%

Q: And the “Fold increase h-GABA-A α5β3γ2 oocyte” value (h-GABA-A α5β3γ2 [1])?
A: 1.64

Q: And the Ki (h-GABA-A α5β3γ2 [2])?
A: 12.7 nM

Q: For `Cc1ccc(-c2noc(C)c2COc2ccc(C(=O)NC3CCS(=O)(=O)CC3)cn2)cn1` [Example 21, N-(1,1-dioxothian-4-yl)-6-((5-methyl-3-(6-methylpyridin-3-yl)-1,2-oxazol-4-yl)methoxy)pyridine-3-carboxamide], which “Efficacy (GABA) %” value (h-GABA-A α5β3γ2 [1]) is on record?
A: 119%

Q: And the “Fold increase h-GABA-A α5β3γ2 oocyte” value (h-GABA-A α5β3γ2 [1])?
A: 2.19

Q: What about the Ki (h-GABA-A α5β3γ2 [2]) of the same compound?
A: 5.4 nM

Q: `Cc1ccc(-c2noc(C)c2COc2ccc(C(=O)N[C@H]3CCOC3)nn2)cn1` [Example 87, (S)-6-((5-methyl-3-(6-methylpyridin-3-yl)isoxazol-4-yl)methoxy)-N-(tetrahydrofuran-3-yl)pyridazine-3-carboxamide] was tested. Which “Efficacy (GABA) %” value (h-GABA-A α5β3γ2 [1]) did it give?
A: 80%

Q: What about the “Fold increase h-GABA-A α5β3γ2 oocyte” value (h-GABA-A α5β3γ2 [1]) of the same compound?
A: 1.8

Q: And the Ki (h-GABA-A α5β3γ2 [2])?
A: 8.1 nM

Q: Which “Efficacy (GABA) %” value (h-GABA-A α5β3γ2 [1]) does the source give for `CNC(=O)c1ccc(OCc2c(-c3ccc(C)nc3)noc2C)nn1` [Example 46, N-methyl-6-((5-methyl-3-(6-methylpyridin-3-yl)isoxazol-4-yl)methoxy)pyridazine-3-carboxamide] here?
A: 63%

Q: What about the “Fold increase h-GABA-A α5β3γ2 oocyte” value (h-GABA-A α5β3γ2 [1]) of the same compound?
A: 1.63

Q: What about the Ki (h-GABA-A α5β3γ2 [2]) of the same compound?
A: 3.5 nM

Q: Which results are given for `CCNC(=O)c1ccc(OCc2c(-c3ccc(C)nc3)noc2C)nn1` [Example 37, N-ethyl-6-((5-methyl-3-(6-methylpyridin-3-yl)isoxazol-4-yl)methoxy)pyridazine-3-carboxamide]?
A: Efficacy (GABA) % (h-GABA-A α5β3γ2 [1]): 73%; Fold increase h-GABA-A α5β3γ2 oocyte (h-GABA-A α5β3γ2 [1]): 1.73; Ki (h-GABA-A α5β3γ2 [2]): 7.6 nM

Q: For `Cc1ccc(-c2noc(C)c2COc2cc3c(cn2)C(=O)N(CC(C)C)C3)cn1` [Example 9, 2-isobutyl-6-((5-methyl-3-(6-methylpyridin-3-yl)isoxazol-4-yl)methoxy)-1H-pyrrolo[3,4-c]pyridin-3(2H)-one], which “Efficacy (GABA) %” value (h-GABA-A α5β3γ2 [1]) is on record?
A: 62%

Q: What about the “Fold increase h-GABA-A α5β3γ2 oocyte” value (h-GABA-A α5β3γ2 [1]) of the same compound?
A: 1.62

Q: And the Ki (h-GABA-A α5β3γ2 [2])?
A: 13.7 nM

Q: `Cc1ccc(-c2noc(C)c2COc2cc3c(cn2)C(=O)N(C2CCSCC2)C3)cn1` [Example 107, 6-((5-methyl-3-(6-methylpyridin-3-yl)isoxazol-4-yl)methoxy)-2-(tetrahydro-2H-thiopyran-4-yl)-1H-pyrrolo[3,4-c]pyridin-3(2H)-one] was tested. Which “Efficacy (GABA) %” value (h-GABA-A α5β3γ2 [1]) did it give?
A: 69%

Q: And the “Fold increase h-GABA-A α5β3γ2 oocyte” value (h-GABA-A α5β3γ2 [1])?
A: 1.69

Q: And the Ki (h-GABA-A α5β3γ2 [2])?
A: 9.6 nM

Q: For `Cc1ncc(-c2noc(C)c2COc2ccc(C(=O)NC(C)C)cn2)cc1F` [Example 144, 6((3-(5-fluoro-6-methyl-3-pyridyl)-5-methyl-isoxazol-4-yl)methoxy)-N-isopropyl-pyridine-3-carboxamide], which “Efficacy (GABA) %” value (h-GABA-A α5β3γ2 [1]) is on record?
A: 15%

Q: And the “Fold increase h-GABA-A α5β3γ2 oocyte” value (h-GABA-A α5β3γ2 [1])?
A: 1.15

Q: And the Ki (h-GABA-A α5β3γ2 [2])?
A: 13.6 nM

Q: What does the source list for `COCC1(NC(=O)c2ccc(OCc3c(-c4ccc(C)nc4)noc3C)nn2)CC1` [Example 54, N-(1-(methoxymethyl)cyclopropyl)-6-((5-methyl-3-(6-methylpyridin-3-yl)isoxazol-4-yl)methoxy)pyridazine-3-carboxamide]?
A: Efficacy (GABA) % (h-GABA-A α5β3γ2 [1]): 86%; Fold increase h-GABA-A α5β3γ2 oocyte (h-GABA-A α5β3γ2 [1]): 1.86; Ki (h-GABA-A α5β3γ2 [2]): 19.9 nM

Q: For `CCC[C@@H](CO)NC(=O)c1ccc(OCc2c(-c3ccc(C4CC4)nc3)noc2C)nc1` [Example 129, 6-((3-(6-cyclopropyl-3-pyridyl)-5-methyl-isoxazol-4-yl)methoxy)-N-((1S)-1-(hydroxymethyl)butyl)pyridine-3-carboxamide], which “Efficacy (GABA) %” value (h-GABA-A α5β3γ2 [1]) is on record?
A: 156%

Q: What about the “Fold increase h-GABA-A α5β3γ2 oocyte” value (h-GABA-A α5β3γ2 [1]) of the same compound?
A: 2.56

Q: And the Ki (h-GABA-A α5β3γ2 [2])?
A: 25.6 nM

Q: Which results are given for `Cc1ccc(-c2noc(C)c2COc2ccc(C(=O)N[C@H]3CCOC[C@@H]3O)cn2)cn1` [Example 127, N-((3R,4S)-3-hydroxytetrahydropyran-4-yl)-6-((5-methyl-3-(6-methyl-3-pyridyl)isoxazol-4-yl)methoxy)pyridine-3-carboxamide]?
A: Efficacy (GABA) % (h-GABA-A α5β3γ2 [1]): 50%; Fold increase h-GABA-A α5β3γ2 oocyte (h-GABA-A α5β3γ2 [1]): 1.5; Ki (h-GABA-A α5β3γ2 [2]): 22.8 nM

Q: Which “Efficacy (GABA) %” value (h-GABA-A α5β3γ2 [1]) does the source give for `Cc1ccc(-c2noc(C)c2COc2ccc(C(=O)NCCC#N)nn2)cn1` [Example 33, N-(2-cyanoethyl)-6-((5-methyl-3-(6-methylpyridin-3-yl)isoxazol-4-yl)methoxy)pyridazine-3-carboxamide] here?
A: 76%

Q: What about the “Fold increase h-GABA-A α5β3γ2 oocyte” value (h-GABA-A α5β3γ2 [1]) of the same compound?
A: 1.76

Q: And the Ki (h-GABA-A α5β3γ2 [2])?
A: 11.6 nM

Q: With `Cc1ccc(-c2noc(C)c2COc2cnc(C(=O)N[C@@H]3CCOC3)cn2)cn1` [Example 89, (R)-5-((5-Methyl-3-(6-methylpyridin-3-yl)isoxazol-4-yl)methoxy)-N-(tetrahydrofuran-3-yl)pyrazine-2-carboxamide] as the compound, how does the “Efficacy (GABA) %” value (h-GABA-A α5β3γ2 [1]) read?
A: 31%

Q: What about the “Fold increase h-GABA-A α5β3γ2 oocyte” value (h-GABA-A α5β3γ2 [1]) of the same compound?
A: 1.31

Q: And the Ki (h-GABA-A α5β3γ2 [2])?
A: 13.1 nM
